Drawing on patent EP0978561A1, “Antisense oligonucleotides for the inhibition of VEGF expression” (Hoechst Marion Roussel Deutschland GmbH, priority 1998, dated 2000), this text covers IC50 for two substances.

This data set deals with human VEGF. Nature of the data set: VEGF protein assay: ELISA of secreted VEGF in conditioned medium of oligonucleotide-treated cells. It is filed as cell-based. Particulars: cells treated 5 hours with oligonucleotide and Cellfectin, secreted VEGF in supernatant, 100% = Cellfectin without oligonucleotide, read-out: IC50 for VEGF secretion. The procedure:
The cells are plated in 96-well plates at 30,000 cells/well, 150 ul medium per well (medium depends on cell type). The next day, Cellfectin (Gibco-BRL) is diluted to 400 ug/ml in water (solution A). Oligonucleotides are diluted to 40X the final desired concentration in water (solution B). Equal amounts of solutions A and B are mixed, to give the desired volume of a solution that is 200 µg/ml Cellfectin and 20X oligonucleotide, and the mixture left at room temperature for 30 minutes. After 30 minutes, 19 volumes of Optimem (Gibco-BRL) is added to give a final solution that is 10 µg/ml Cellfectin and 1X oligonucleotide (solution C). Medium is removed from the cells, the wells are washed 2X with Optimem, and 150 µl solution C added to each well. The plates are then returned to the incubator (37°C, 5% CO2). After 5 hours, the Cellfectin/oligonucleotide solution is removed and replaced with 150 µl of regular growth medium. VEGF protein and mRNA assays are performed beginning 19 hours later.
Samples (from example 4) of conditioned medium are taken from the desired wells and assayed for the presence of human VEGF using the human VEGF ELISA kit from R & D systems.The assay protocol is the one provided with the kit.
The IC50s are calculated based on a value of 100% for the amount of VEGF protein or mRNA in cells treated with Cellfectin but no oligonucleotide.
(In general: ELISA stands for enzyme-linked immunosorbent assay.)

pIC50: −log10 of the molar value. Where two headings read alike, the source gives them in different places.

By pIC50 is commonly meant the IC50 on a negative log10 scale, so that one unit is a factor of ten. Turning to “5'-p*(2'5'-Co Co Co Co)(teg) G*C*G C*T G A*T*A G A*C*A T*C*C*A*T*G -3' (GCGCTGATAGACATCCATG; chemistry not fully specified) [ON 53, 2'5(Co)4-conjugate all-2'-O-methyl]”, the pIC50 is 5.82.

Turning to “5'-p*-(2'5'-rA*rA*rA*rA)*(teg) G*C*G C*T G A*T*A G A*C*A T*C*C*A*T*G -3' (GCGCTGATAGACATCCATG; 5'-phosphate 2'5' rA4, teg linker, all-2'-O-methyl, chemistry not fully specified) [ON 54, 2'5'(rA)4-conjugate all-2'-O-methyl]”, the pIC50 is 6.64. In addition, the pIC50 (listed as ON54) is around 6.64.
